Key:
Thromboxane A2 receptor [1] = molecular target: T1, Thromboxane A2 receptor (Homo sapiens, UniProt P21731); type: functional, cell-based
T1 sequence (P21731 whole entry): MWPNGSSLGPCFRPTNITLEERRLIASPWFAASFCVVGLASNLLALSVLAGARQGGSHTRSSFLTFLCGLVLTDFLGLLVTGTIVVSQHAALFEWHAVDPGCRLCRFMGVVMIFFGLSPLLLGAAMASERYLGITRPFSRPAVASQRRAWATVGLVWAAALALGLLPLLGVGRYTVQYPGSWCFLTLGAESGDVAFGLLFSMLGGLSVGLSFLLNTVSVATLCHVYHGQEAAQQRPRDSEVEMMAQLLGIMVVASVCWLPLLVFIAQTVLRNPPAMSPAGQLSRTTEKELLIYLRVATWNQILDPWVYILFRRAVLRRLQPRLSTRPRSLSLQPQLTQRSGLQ

Mu-type opioid receptor = Mu-type opioid receptor (Homo sapiens, UniProt P35372)
Acetylcholinesterase = Acetylcholinesterase (Homo sapiens, UniProt P22303); type: functional
Thromboxane A2 receptor [2] = molecular target: T1, Thromboxane A2 receptor; type: functional, cell-based; remark: listed apart in the source
[3] = molecular target: T2, 5-hydroxytryptamine receptor 1A (Homo sapiens, UniProt P08908)
T2 sequence (P08908 whole entry): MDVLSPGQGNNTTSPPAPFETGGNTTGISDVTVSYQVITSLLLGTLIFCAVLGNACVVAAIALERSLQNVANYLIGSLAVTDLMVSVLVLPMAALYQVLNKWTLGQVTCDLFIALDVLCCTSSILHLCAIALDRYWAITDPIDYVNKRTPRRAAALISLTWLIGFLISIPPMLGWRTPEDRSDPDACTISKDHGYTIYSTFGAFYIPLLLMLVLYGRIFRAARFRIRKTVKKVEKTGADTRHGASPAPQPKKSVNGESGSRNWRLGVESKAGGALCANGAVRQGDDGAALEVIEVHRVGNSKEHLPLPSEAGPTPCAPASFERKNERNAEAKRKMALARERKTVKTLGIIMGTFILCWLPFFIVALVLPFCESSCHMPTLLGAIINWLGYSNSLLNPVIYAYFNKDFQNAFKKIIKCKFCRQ

[4] = molecular target: T3, Muscarinic acetylcholine receptor M2 (Homo sapiens, UniProt P08172)
T3 sequence (P08172 whole entry): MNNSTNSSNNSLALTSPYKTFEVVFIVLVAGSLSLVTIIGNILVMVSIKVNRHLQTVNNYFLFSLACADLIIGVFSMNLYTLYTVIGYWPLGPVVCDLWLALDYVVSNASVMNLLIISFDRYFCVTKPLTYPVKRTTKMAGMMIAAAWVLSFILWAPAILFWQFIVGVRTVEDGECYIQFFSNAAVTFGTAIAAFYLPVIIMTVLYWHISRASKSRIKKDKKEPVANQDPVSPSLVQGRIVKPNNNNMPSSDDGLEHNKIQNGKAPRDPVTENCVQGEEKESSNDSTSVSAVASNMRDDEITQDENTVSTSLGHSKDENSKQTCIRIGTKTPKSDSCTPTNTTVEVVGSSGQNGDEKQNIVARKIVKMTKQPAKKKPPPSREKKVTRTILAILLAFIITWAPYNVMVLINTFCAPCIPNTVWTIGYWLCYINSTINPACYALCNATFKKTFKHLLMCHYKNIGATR

Prothrombin = Prothrombin (Homo sapiens, UniProt P00734); type: functional
[5] = molecular target: T4, Amine oxidase [flavin-containing] A (Homo sapiens, UniProt P21397); type: functional
T4 sequence (P21397 whole entry): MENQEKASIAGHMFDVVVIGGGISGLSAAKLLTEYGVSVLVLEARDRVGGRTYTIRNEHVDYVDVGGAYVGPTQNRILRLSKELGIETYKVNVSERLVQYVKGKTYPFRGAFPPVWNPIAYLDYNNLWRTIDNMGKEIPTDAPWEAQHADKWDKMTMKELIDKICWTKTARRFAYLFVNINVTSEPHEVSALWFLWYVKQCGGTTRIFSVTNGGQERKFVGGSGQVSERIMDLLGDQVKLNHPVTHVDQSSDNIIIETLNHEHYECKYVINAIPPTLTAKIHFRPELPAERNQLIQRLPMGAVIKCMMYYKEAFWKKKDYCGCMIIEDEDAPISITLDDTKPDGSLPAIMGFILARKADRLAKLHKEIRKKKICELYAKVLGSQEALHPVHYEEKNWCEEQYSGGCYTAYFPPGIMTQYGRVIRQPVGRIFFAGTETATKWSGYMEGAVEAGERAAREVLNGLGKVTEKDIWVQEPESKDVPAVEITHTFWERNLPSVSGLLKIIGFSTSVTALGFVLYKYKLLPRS

D(1A) dopamine receptor = D(1A) dopamine receptor (Homo sapiens, UniProt P21728)
[6] = molecular target: Prostaglandin G/H synthase 1 (Homo sapiens, UniProt P23219); type: functional
[7] = molecular target: Sodium-dependent noradrenaline transporter (Homo sapiens, UniProt P23975)
Histamine H3 receptor = Histamine H3 receptor (Homo sapiens, UniProt Q9Y5N1)
[8] = molecular target: T5, Alpha-2A adrenergic receptor (Homo sapiens, UniProt P08913)
T5 sequence (P08913 whole entry): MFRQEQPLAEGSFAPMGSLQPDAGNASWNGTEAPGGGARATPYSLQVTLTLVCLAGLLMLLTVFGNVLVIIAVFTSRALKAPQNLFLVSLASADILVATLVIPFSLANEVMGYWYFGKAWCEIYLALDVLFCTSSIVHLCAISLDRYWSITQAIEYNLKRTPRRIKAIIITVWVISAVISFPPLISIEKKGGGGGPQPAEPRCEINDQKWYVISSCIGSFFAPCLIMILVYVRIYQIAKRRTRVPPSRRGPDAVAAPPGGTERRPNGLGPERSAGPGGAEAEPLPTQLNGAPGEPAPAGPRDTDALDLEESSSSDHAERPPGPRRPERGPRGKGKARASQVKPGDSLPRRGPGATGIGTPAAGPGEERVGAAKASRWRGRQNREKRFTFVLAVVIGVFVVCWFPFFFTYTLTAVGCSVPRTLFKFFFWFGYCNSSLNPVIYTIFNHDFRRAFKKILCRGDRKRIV

D(3) dopamine receptor = D(3) dopamine receptor (Homo sapiens, UniProt P35462)
Note: assay procedure not described here.

Sequence of Acetylcholinesterase (P22303 whole entry): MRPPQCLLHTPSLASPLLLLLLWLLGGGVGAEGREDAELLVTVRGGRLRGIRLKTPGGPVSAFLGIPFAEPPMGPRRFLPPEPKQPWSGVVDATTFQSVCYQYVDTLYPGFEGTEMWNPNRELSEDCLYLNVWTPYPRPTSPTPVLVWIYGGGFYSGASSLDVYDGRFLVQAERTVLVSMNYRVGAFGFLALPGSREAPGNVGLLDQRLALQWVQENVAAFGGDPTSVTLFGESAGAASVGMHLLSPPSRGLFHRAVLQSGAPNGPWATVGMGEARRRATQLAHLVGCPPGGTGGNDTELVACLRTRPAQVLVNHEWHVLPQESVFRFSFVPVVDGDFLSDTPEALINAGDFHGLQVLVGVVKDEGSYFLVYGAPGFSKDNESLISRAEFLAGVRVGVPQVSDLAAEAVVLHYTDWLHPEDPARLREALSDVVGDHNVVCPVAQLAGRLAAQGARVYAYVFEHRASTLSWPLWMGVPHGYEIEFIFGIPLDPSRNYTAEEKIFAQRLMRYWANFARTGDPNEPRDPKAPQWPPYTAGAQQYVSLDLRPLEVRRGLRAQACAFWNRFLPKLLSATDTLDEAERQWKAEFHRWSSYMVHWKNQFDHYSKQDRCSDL
Sequence of Histamine H3 receptor (Q9Y5N1 whole entry): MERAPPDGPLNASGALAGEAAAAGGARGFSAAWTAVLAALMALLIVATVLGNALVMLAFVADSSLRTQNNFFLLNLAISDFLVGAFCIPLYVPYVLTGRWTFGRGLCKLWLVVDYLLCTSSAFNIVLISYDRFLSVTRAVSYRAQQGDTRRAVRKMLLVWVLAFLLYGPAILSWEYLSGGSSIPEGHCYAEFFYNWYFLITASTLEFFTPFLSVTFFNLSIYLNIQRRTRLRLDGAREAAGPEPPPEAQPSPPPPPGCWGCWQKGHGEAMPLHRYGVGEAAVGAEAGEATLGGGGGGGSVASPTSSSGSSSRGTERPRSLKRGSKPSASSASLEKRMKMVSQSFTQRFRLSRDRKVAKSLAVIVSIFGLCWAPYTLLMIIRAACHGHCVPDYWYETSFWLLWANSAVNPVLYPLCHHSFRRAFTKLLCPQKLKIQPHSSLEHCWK
Sequence of Sodium-dependent noradrenaline transporter (P23975 whole entry): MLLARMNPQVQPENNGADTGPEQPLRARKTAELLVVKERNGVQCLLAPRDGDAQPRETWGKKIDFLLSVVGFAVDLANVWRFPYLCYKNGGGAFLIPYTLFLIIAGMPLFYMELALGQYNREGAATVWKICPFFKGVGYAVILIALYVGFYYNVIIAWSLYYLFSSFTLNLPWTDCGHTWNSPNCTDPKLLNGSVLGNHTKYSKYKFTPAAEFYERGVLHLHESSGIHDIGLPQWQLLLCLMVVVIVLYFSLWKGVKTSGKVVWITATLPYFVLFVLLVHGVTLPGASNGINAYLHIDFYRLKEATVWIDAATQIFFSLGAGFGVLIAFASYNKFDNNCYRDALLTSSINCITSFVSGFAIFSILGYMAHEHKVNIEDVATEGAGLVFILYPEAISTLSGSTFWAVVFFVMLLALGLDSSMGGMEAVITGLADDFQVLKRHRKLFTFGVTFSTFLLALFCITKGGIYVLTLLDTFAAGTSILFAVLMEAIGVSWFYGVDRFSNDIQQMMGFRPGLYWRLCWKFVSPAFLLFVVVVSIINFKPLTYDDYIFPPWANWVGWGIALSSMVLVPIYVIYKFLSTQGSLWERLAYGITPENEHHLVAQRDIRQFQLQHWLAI
Sequence of D(1A) dopamine receptor (P21728 whole entry): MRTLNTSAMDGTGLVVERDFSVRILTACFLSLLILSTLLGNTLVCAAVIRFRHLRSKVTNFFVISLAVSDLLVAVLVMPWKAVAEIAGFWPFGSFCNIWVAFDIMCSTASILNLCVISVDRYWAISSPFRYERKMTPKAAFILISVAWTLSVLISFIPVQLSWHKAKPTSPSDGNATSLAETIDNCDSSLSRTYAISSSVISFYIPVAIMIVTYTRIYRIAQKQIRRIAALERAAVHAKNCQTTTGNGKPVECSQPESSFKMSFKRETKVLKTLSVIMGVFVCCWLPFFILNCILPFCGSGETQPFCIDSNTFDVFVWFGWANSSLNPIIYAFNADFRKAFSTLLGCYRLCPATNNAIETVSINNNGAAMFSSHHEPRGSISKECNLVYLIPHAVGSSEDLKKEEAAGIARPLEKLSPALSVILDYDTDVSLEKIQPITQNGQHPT
Sequence of Mu-type opioid receptor (P35372 whole entry): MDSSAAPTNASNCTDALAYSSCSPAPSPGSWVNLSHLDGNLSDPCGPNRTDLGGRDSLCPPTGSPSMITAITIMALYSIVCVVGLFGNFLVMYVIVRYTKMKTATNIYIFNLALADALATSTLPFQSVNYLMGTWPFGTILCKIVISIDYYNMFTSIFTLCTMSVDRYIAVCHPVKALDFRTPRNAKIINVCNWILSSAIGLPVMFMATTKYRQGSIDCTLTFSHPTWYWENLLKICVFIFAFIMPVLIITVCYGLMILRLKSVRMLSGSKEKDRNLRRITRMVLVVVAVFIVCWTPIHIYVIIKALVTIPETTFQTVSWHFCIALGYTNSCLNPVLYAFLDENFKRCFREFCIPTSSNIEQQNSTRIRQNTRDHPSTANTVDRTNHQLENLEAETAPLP
Sequence of Prostaglandin G/H synthase 1 (P23219 whole entry): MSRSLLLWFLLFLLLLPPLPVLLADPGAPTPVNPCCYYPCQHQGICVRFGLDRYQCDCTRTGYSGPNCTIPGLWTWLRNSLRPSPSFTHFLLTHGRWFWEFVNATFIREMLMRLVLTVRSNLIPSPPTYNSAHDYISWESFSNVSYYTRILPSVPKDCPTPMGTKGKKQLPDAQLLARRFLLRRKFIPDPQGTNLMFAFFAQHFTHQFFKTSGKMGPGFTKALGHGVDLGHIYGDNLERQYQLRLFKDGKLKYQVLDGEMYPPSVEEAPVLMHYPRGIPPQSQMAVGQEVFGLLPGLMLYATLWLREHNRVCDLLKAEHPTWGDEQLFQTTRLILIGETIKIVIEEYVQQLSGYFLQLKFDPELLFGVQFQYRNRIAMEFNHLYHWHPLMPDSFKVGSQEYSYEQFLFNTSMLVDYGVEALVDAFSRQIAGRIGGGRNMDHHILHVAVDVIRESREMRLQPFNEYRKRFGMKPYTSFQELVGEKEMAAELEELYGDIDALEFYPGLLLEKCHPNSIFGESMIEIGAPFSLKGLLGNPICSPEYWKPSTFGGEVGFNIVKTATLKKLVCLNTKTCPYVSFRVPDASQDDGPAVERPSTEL
Sequence of D(3) dopamine receptor (P35462 whole entry): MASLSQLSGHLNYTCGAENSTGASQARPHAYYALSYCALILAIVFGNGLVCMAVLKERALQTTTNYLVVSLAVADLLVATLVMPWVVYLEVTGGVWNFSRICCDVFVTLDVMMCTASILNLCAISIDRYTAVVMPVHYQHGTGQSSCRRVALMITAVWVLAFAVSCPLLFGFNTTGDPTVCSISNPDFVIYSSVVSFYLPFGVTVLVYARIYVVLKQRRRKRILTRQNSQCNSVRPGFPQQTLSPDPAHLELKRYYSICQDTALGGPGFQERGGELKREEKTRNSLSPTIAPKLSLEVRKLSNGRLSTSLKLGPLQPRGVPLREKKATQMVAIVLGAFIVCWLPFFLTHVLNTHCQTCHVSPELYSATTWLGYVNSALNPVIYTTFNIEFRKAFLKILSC

SMILES	AC50 (Thromboxane A2 receptor [1]) [µM]	AC50 (Mu-type opioid receptor) [µM]	AC50 (Acetylcholinesterase) [µM]	AC50 (Thromboxane A2 receptor [2]) [µM]	AC50 [3] [µM]	AC50 [4] [µM]	AC50 (Prothrombin) [µM]	AC50 [5] [µM]	AC50 (D(1A) dopamine receptor) [µM]	AC50 [6] [µM]	AC50 [7] [µM]	AC50 (Histamine H3 receptor) [µM]	AC50 [8] [µM]	AC50 (D(3) dopamine receptor) [µM]
CCCCCCCCCCCCCCCCCC(=O)NCCCC[C@H](NC(=O)CC[C@@H](NC(=O)[C@H](C)NC(=O)[C@@H](C)O[C@H]1[C@H](O)[C@@H](CO)OC(O)[C@@H]1NC(C)=O)C(N)=O)C(=O)O (stereo partly drawn) [ROMURTIDE]	15.9	> 30	> 30	> 3	6.21	> 30	> 30	> 30	> 30	> 30	> 30	> 30	> 30	> 30
c1cc(CN2CCCNCCNCCCNCC2)ccc1CN1CCCNCCNCCCNCC1 [PLERIXAFOR]	> 30	> 30	> 30	> 30	> 30	> 30	> 30	> 30	> 30	> 30	> 30	0.307	> 30	> 30
O=C(O)CC(O)(CC(=O)O)C(=O)O [CITRIC ACID]	> 30	> 30	> 30	> 30	> 30	> 30	> 30	> 30	> 30	> 30	> 30	> 30	> 30	> 30
O=C(Nc1nc(-c2cc(Cl)cs2)c(N2CCN(C3CCCCC3)CC2)s1)c1cnc(N2CCC(C(=O)O)CC2)c(Cl)c1 [AVATROMBOPAG]	> 30	> 30	> 30	> 10	> 30	> 30	> 30	> 30	> 30	19.8	> 30	> 30	> 30	> 30
O=C1c2c(O)cccc2Cc2cccc(O)c21 [ANTHRALIN]	> 30	> 30	> 30	> 30	> 30	> 3	> 30	> 30	> 30	14	> 3	28.9	> 30	> 30
COC(=O)C1=C(C)NC(C)=C(C(=O)O[C@H]2CCN(Cc3ccccc3)C2)[C@H]1c1cccc([N+](=O)[O-])c1 [BARNIDIPINE]	> 30	3.24	> 30	4.47	6.56	2.35	> 30	> 30	8.89	> 30	0.635	> 30	6.54	4.3
O=C(NC(Cc1cc(=O)[nH]c2ccccc12)C(=O)O)c1ccc(Cl)cc1 (stereo not drawn) [REBAMIPIDE]	> 30	> 30	> 30	> 30	> 30	> 30	> 30	> 30	> 30	> 30	> 30	> 30	> 30	> 30
C1CNCCN1 [PIPERAZINE]	> 30	> 30	> 30	> 30	> 30	> 30	> 30	> 30	> 30	> 30	> 30	> 30	> 30	> 30
Cc1onc(-c2c(Cl)cccc2Cl)c1C(=O)N[C@@H]1C(=O)N2[C@@H]1SC(C)(C)[C@@H]2C(=O)O [DICLOXACILLIN]	> 30	> 30	> 30	> 30	> 30	> 30	> 30	> 30	> 30	> 30	> 30	> 30	> 30	> 30
CO[C@H]1[C@@H](O)C[C@H](O[C@H]2[C@@H](O)C[C@H](O[C@H]3[C@@H](O)C[C@H](O[C@H]4CC[C@@]5(C)[C@H](CC[C@@H]6[C@@H]5C[C@@H](O)[C@]5(C)[C@@H](C7=CC(=O)OC7)CC[C@]65O)C4)O[C@@H]3C)O[C@@H]2C)O[C@@H]1C [METILDIGOXIN]	> 30	> 30	> 30	> 30	> 30	> 30	> 30	> 30	> 30	> 30	> 30	> 30	> 30	> 30
Cc1nnc(SCC2=C(C(=O)O)N3C(=O)[C@@H](NC(=O)Cn4cc(Cl)c(=O)c(Cl)c4)[C@H]3SC2)s1 [CEFAZEDONE]	> 30	> 30	> 30	> 30	> 30	> 30	> 30	> 30	> 30	24.8	> 30	> 30	> 30	> 30
Nc1nc(N)nc(Nc2ccc([As]3SCC(CO)S3)cc2)n1 (stereo not drawn) [MELARSOPROL]	> 30	> 30	> 30	> 30	> 30	> 30	> 30	> 30	> 30	23.5	> 30	> 30	> 30	> 30

From ChEMBL document CHEMBL5291721, “A preclinical secondary pharmacology resource illuminates target-adverse drug reaction associations of marketed drugs” (Nat Commun, 2023)
